Reference: ChEMBL document CHEMBL1157018, “Synthesis and antibacterial activity of 5-ylidenethiazolidin-4-ones and 5-benzylidene-4,6-pyrimidinediones” (2010)
In brackets after ≈: the same amount, converted by molar mass.

Assays:
Format in all cases: functional
Staphylococcus aureus [1] = assay: Antibacterial activity against Staphylococcus aureus ATCC 29213 after 18 to 24 hrs
Enterococcus faecalis = assay: Antibacterial activity against Enterococcus faecalis ATCC 29212 after 18 to 24 hrs
Staphylococcus aureus [2] = assay: Antibacterial activity against methicillin-resistant Staphylococcus aureus ATCC 43300 after 18 to 24 hrs
Streptococcus pneumoniae = assay: Antibacterial activity against Streptococcus pneumoniae ATCC 49619 after 18 to 24 hrs
Streptococcus pyogenes = assay: Antibacterial activity against Streptococcus pyogenes ATCC 19615 after 18 to 24 hrs
Escherichia coli = assay: Antibacterial activity against Escherichia coli ATCC 25922 after 18 to 24 hrs
Pseudomonas aeruginosa = assay: Antibacterial activity against Pseudomonas aeruginosa ATCC 27853 after 18 to 24 hrs

**Q.** `COc1cc(/C=C2\SC(=S)NC2=O)cc(OC)c1OC` was tested. Which MIC (Staphylococcus aureus [1]) did it give?
**A.** 8 µg/mL (≈ 25.7 µM)

**Q.** What about the MIC (Enterococcus faecalis) of the same compound?
**A.** > 128 µg/mL

**Q.** What about the MIC (Staphylococcus aureus [2]) of the same compound?
**A.** 128 µg/mL (≈ 411 µM)

**Q.** And the MBC (Streptococcus pneumoniae)?
**A.** > 128 µg/mL

**Q.** What about the MBC (Streptococcus pyogenes) of the same compound?
**A.** > 128 µg/mL

**Q.** What about the MIC (Escherichia coli) of the same compound?
**A.** > 128 µg/mL

**Q.** And the MIC (Pseudomonas aeruginosa)?
**A.** > 128 µg/mL

**Q.** `O=C1NC(=S)S/C1=C\c1ccc(F)c(F)c1F` was tested. Which MIC (Staphylococcus aureus [1]) did it give?
**A.** 0.5 µg/mL (≈ 1.82 µM)

**Q.** What about the MIC (Enterococcus faecalis) of the same compound?
**A.** > 128 µg/mL

**Q.** And the MIC (Staphylococcus aureus [2])?
**A.** 32 µg/mL (≈ 116 µM)

**Q.** What about the MBC (Streptococcus pneumoniae) of the same compound?
**A.** 64 µg/mL (≈ 232 µM)

**Q.** What about the MBC (Streptococcus pyogenes) of the same compound?
**A.** > 128 µg/mL

**Q.** What about the MIC (Escherichia coli) of the same compound?
**A.** > 128 µg/mL

**Q.** And the MIC (Pseudomonas aeruginosa)?
**A.** > 128 µg/mL

**Q.** How did the MIC (Staphylococcus aureus [1]) turn out when `COc1cc(/C=C2\SC(=O)NC2=O)cc(OC)c1OC` was run?
**A.** > 128 µg/mL

**Q.** What about the MIC (Enterococcus faecalis) of the same compound?
**A.** > 128 µg/mL

**Q.** And the MIC (Escherichia coli)?
**A.** > 128 µg/mL

**Q.** And the MIC (Pseudomonas aeruginosa)?
**A.** > 128 µg/mL

**Q.** What does the source list for `COc1cc(C=C2C(=O)NC(=S)NC2=O)cc(OC)c1OC`?
**A.** MIC (Staphylococcus aureus [1]): > 128 µg/mL; MIC (Enterococcus faecalis): > 128 µg/mL; MIC (Escherichia coli): > 128 µg/mL; MIC (Pseudomonas aeruginosa): > 128 µg/mL

**Q.** For `COc1cc(/C=C2\SC(=S)N(CC(=O)O)C2=O)cc(OC)c1OC`, which MIC (Staphylococcus aureus [1]) is on record?
**A.** > 128 µg/mL

**Q.** And the MIC (Enterococcus faecalis)?
**A.** > 128 µg/mL

**Q.** And the MIC (Escherichia coli)?
**A.** > 128 µg/mL

**Q.** And the MIC (Pseudomonas aeruginosa)?
**A.** > 128 µg/mL

**Q.** How did the MIC (Staphylococcus aureus [1]) turn out when `Cl.N#Cc1ccc(CN2C(=O)C(CCOc3ccc(CCN)cc3)Oc3ccccc32)cc1` (stereo not drawn) was run?
**A.** 64 µg/mL

**Q.** What about the MIC (Enterococcus faecalis) of the same compound?
**A.** 64 µg/mL

**Q.** How did the MIC (Staphylococcus aureus [1]) turn out when `O=C1NC(=O)/C(=C/c2ccc(F)c(F)c2F)S1` was run?
**A.** 32 µg/mL (≈ 123 µM)

**Q.** And the MIC (Enterococcus faecalis)?
**A.** > 128 µg/mL

**Q.** What about the MIC (Staphylococcus aureus [2]) of the same compound?
**A.** 64 µg/mL (≈ 247 µM)

**Q.** And the MIC (Escherichia coli)?
**A.** > 128 µg/mL

**Q.** And the MIC (Pseudomonas aeruginosa)?
**A.** > 128 µg/mL

**Q.** Which results are given for `O=C1NC(=S)S/C1=C\CC1Oc2ccccc2N(Cc2ccc(Cl)cc2)C1=O` (stereo not drawn)?
**A.** MIC (Staphylococcus aureus [1]): 32 µg/mL (≈ 74.3 µM); MIC (Enterococcus faecalis): > 128 µg/mL; MIC (Escherichia coli): > 128 µg/mL; MIC (Pseudomonas aeruginosa): > 128 µg/mL

**Q.** Which MIC (Staphylococcus aureus [1]) does the source give for `N#Cc1ccc(CN2C(=O)C(C/C=C3\SC(=S)NC3=O)Oc3ccccc32)cc1` (stereo not drawn) here?
**A.** 32 µg/mL (≈ 75.9 µM)

**Q.** What about the MIC (Enterococcus faecalis) of the same compound?
**A.** 32 µg/mL (≈ 75.9 µM)

**Q.** And the MIC (Escherichia coli)?
**A.** > 128 µg/mL

**Q.** What about the MIC (Pseudomonas aeruginosa) of the same compound?
**A.** > 128 µg/mL

**Q.** Which results are given for `COc1cc(C=C2C(=O)NC(=O)NC2=O)cc(OC)c1OC`?
**A.** MIC (Staphylococcus aureus [1]): > 128 µg/mL; MIC (Enterococcus faecalis): > 128 µg/mL; MIC (Escherichia coli): > 128 µg/mL; MIC (Pseudomonas aeruginosa): > 128 µg/mL

**Q.** For `O=C(O)CN1C(=O)/C(=C/c2ccc(F)c(F)c2F)SC1=S`, which MIC (Staphylococcus aureus [1]) is on record?
**A.** > 128 µg/mL

**Q.** And the MIC (Enterococcus faecalis)?
**A.** > 128 µg/mL

**Q.** What about the MIC (Escherichia coli) of the same compound?
**A.** > 128 µg/mL

**Q.** What about the MIC (Pseudomonas aeruginosa) of the same compound?
**A.** > 128 µg/mL

**Q.** With `O=C1NC(=O)C(=Cc2ccc(F)c(F)c2F)C(=O)N1` as the compound, how does the MIC (Staphylococcus aureus [1]) read?
**A.** 32 µg/mL (≈ 118 µM)

**Q.** What about the MIC (Enterococcus faecalis) of the same compound?
**A.** > 128 µg/mL

**Q.** And the MIC (Staphylococcus aureus [2])?
**A.** 128 µg/mL (≈ 474 µM)

**Q.** What about the MIC (Escherichia coli) of the same compound?
**A.** > 128 µg/mL

**Q.** What about the MIC (Pseudomonas aeruginosa) of the same compound?
**A.** > 128 µg/mL

**Q.** `O=C1NC(=S)S/C1=C\c1ccc(O)c(O)c1O` was tested. Which MIC (Staphylococcus aureus [1]) did it give?
**A.** > 128 µg/mL

**Q.** And the MIC (Enterococcus faecalis)?
**A.** > 128 µg/mL

**Q.** Which MIC (Staphylococcus aureus [1]) does the source give for `Cl.NCCc1ccc(OCCC2Oc3ccccc3N(Cc3ccc(Cl)cc3)C2=O)cc1` (stereo not drawn) here?
**A.** 8 µg/mL

**Q.** What about the MIC (Enterococcus faecalis) of the same compound?
**A.** 16 µg/mL
